Structures can show the parent of a compound that is named as a salt.
Assays:
V370A = assay: MT4 Cell Antiviral Assay, V370A; format: cell-based, HIV-1; conditions: Human immunodeficiency virus 1, MT4, read-out: EC50V370A
NL4-3 wt = assay: MT4 Cell Antiviral Assay, NL4-3 wt; format: cell-based, HIV-1; conditions: Human immunodeficiency virus 1, NL43, HIV MT4 Antiviral Cell Assay of Example 11
HIV = conditions: cited from earlier work

SMILES	EC50 (V370A)	EC50 (NL4-3 wt)	reduced HIV viral load, mean (HIV; patients with trough levels >=20 μg/mL and without key baseline Gag polymorphisms at Q369, V370 or T371)	viral load reductions versus patients without Gag polymorphisms (HIV; users with Gag polymorphisms at Q369, V370 or T371)
COCC(=O)N(CC1CC1)C[C@H](O)[C@@]12CC[C@]3(C)[C@H](CC[C@@H]4[C@@]5(C)CC=C(C6=CCC(C(=O)O)CC6)C(C)(C)[C@@H]5CC[C@]43C)C1=C(C(C)C)C(=O)C2 (stereo partly drawn) [Example 1, 4-((3aR,5aR,5bR,7aR,11aS, 11bR,13aS)-3a-((R)-2-(N-(cyclopropylmethyl)-2-methoxyacetamido)-1-hydroxyethyl)-1-isopropyl-5a,5b,8,8,11a-pentamethyl-2-oxo-3,3a,4,5,5a,5b,6,7,7a,8, 11,11a,11b,12,13,13a-hexadecahydro-2H-cyclopenta[a]chrysen-9-yl)cyclohex-3-enecarboxylic acid]	8.9 nM	7.9 nM		
C=C(C)[C@@H]1CC[C@]2(C(=O)O)CC[C@]3(C)[C@H](CC[C@@H]4[C@@]5(C)CC[C@H](OC(=O)CC(C)(C)C(=O)O)C(C)(C)[C@@H]5CC[C@]43C)[C@@H]12 [Bevirimat]			1.3 log10/mL	significantly lower load reductions
CC(C)C1=C2[C@H]3CC[C@@H]4[C@@]5(C)CC=C(C6=CCC(C(=O)O)CC6)C(C)(C)[C@@H]5CC[C@@]4(C)[C@]3(C)CC[C@@]2([C@@H](O)CN(CCN(C)C)Cc2ccc(Cl)cc2)CC1=O (stereo partly drawn) [Example 9, 4-((3aR,5aR,5bR,7aR,11aS, 11bR,13aS)-3a-((R)-2-((4-chlorobenzyl)(2-(dimethylamino)ethyl)amino)-1-hydroxyethyl)-1-isopropyl-5a,5b,8,8,11a-pentamethyl-2-oxo-3,3a,4,5,5a,5b,6,7,7a,8, 11,11a,11b,12,13,13a-hexadecahydro-2H-cyclopenta[a]chrysen-9-yl)cyclohex-3-enecarboxylic acid dihydrochloride]	10.7 nM	6.8 nM		
CC(C)C1=C2[C@H]3CC[C@@H]4[C@@]5(C)CC=C(C6=CCC(C(=O)O)CC6)C(C)(C)[C@@H]5CC[C@@]4(C)[C@]3(C)CC[C@@]2([C@@H](O)CN(CC2CC2)C(=O)CN2CCCC2)CC1=O (stereo partly drawn) [Example 3, 4-((3aR,5aR,5bR,7aR,11aS, 11bR,13aS)-3a-((R)-2-(N-(cyclopropylmethyl)-2-(pyrrolidin-1-yl)acetamido)-1-hydroxyethyl)-1-isopropyl-5a,5b,8,8,11a-pentamethyl-2-oxo-3,3a,4,5,5a,5b,6,7,7a,8, 11,11a,11b,12,13,13a-hexadecahydro-2H-cyclopenta[a]chrysen-9-yl)cyclohex-3-enecarboxylic acid]	3.7 nM	3.3 nM		
CC(C)C1=C2[C@H]3CC[C@@H]4[C@@]5(C)CC=C(C6=CCC(C(=O)O)CC6)C(C)(C)[C@@H]5CC[C@@]4(C)[C@]3(C)CC[C@@]2([C@@H](O)CN(CC2CC2)C(=O)CN(C)C)CC1=O (stereo partly drawn) [Example 2, 4-((3aR,5aR,5bR,7aR,11aS, 11bR,13aS)-3a-((R)-2-(N-(cyclopropylmethyl)-2-(dimethylamino)acetamido)-1-hydroxyethyl)-1-isopropyl-5a,5b,8,8,11a-pentamethyl-2-oxo-3,3a,4,5,5a,5b,6,7,7a,8, 11,11a,11b,12,13,13a-hexadecahydro-2H-cyclopenta[a]chrysen-9-yl)cyclohex-3-enecarboxylic acid]	11.2 nM	5.4 nM		
COCC(=O)N(CC1CCC1)C[C@H](O)[C@@]12CC[C@]3(C)[C@H](CC[C@@H]4[C@@]5(C)CC=C(C6=CCC(C(=O)O)CC6)C(C)(C)[C@@H]5CC[C@]43C)C1=C(C(C)C)C(=O)C2 (stereo partly drawn) [Example 6, 4-((3aR,5aR,5bR,7aR,11aS, 11bR,13aS)-3a-((R)-2-(N-(cyclobutylmethyl)-2-methoxyacetamido)-1-hydroxyethyl)-1-isopropyl-5a,5b,8,8,11a-pentamethyl-2-oxo-3,3a,4,5,5a,5b,6,7,7a,8, 11,11a,11b,12,13,13a-hexadecahydro-2H-cyclopenta[a]chrysen-9-yl)cyclohex-3-enecarboxylic acid]	20.4 nM	10 nM		
CC(C)C1=C2[C@H]3CC[C@@H]4[C@@]5(C)CC=C(C6=CCC(C(=O)O)CC6)C(C)(C)[C@@H]5CC[C@@]4(C)[C@]3(C)CC[C@@]2([C@@H](O)CN(CC2CC2)C(=O)CN2CCCC2=O)CC1=O (stereo partly drawn) [Example 4, 4-((3aR,5aR,5bR,7aR,11aS, 11bR,13aS)-3a-((R)-2-(N-(cyclopropylmethyl)-2-(2-oxopyrrolidin-1-yl)acetamido)-1-hydroxyethyl)-1-isopropyl-5a,5b,8,8,11a-pentamethyl-2-oxo-3,3a,4,5,5a,5b,6,7,7a,8, 11,11a,11b,12,13,13a-hexadecahydro-2H-cyclopenta[a]chrysen-9-yl)cyclohex-3-enecarboxylic acid]	20.9 nM	7.1 nM		
CC(C)C1=C2[C@H]3CC[C@@H]4[C@@]5(C)CC=C(C6=CCC(C(=O)O)CC6)C(C)(C)[C@@H]5CC[C@@]4(C)[C@]3(C)CC[C@@]2([C@@H](O)CN(CC2CCC2)C(=O)CN2CCCC2)CC1=O (stereo partly drawn) [Example 7, 4-((3aR,5aR,5bR,7aR,11aS, 11bR,13aS)-3a-((R)-2-(N-(cyclobutylmethyl)-2-(pyrrolidin-1-yl)acetamido)-1-hydroxyethyl)-1-isopropyl-5a,5b,8,8,11a-pentamethyl-2-oxo-3,3a,4,5,5a,5b,6,7,7a,8, 11,11a,11b,12,13,13a-hexadecahydro-2H-cyclopenta[a]chrysen-9-yl)cyclohex-3-enecarboxylic acid]	4.1 nM	5.8 nM		
CC(C)C1=C2[C@H]3CC[C@@H]4[C@@]5(C)CC=C(C6=CCC(C(=O)O)CC6)C(C)(C)[C@@H]5CC[C@@]4(C)[C@]3(C)CC[C@@]2([C@@H](O)CNCC2CC2)CC1=O (stereo partly drawn) [Example 10, 4-((3aR,5aR,5bR,7aR,11aS, 11bR,13aS)-3a-((R)-2-((cyclopropylmethyl)amino)-1-hydroxyethyl)-1-isopropyl-5a,5b,8,8,11a-pentamethyl-2-oxo-3,3a,4,5,5a,5b,6,7,7a,8, 11,11a,11b,12,13,13a-hexadecahydro-2H-cyclopenta[a]chrysen-9-yl)cyclohex-3-enecarboxylic acid]	25100 nM	9.3 nM		
